Assay results from paper PMC7463537, “Synthesis and Evaluation of Antimicrobial and Cytotoxic Activity of Oxathiine-Fused Quinone-Thioglucoside Conjugates of Substituted 1,4-Naphthoquinones” (Molecules, 2020).
≈ marks a conversion by molar mass, not a printed value.

Tests used:
[1] = test system: B. cereus ATCC 10702; assay: Agar diffusion method, B. cereus; type: cell-based, Bacillus cereus; parameters: key to Diameter of Zone Inhibition, B. cereus: Zones within 20–40 mm mean strong antibiotic activity; zones up to 20 mm—moderate; ≤10 mm—weak; +—insignificant; conditions: for zone of inhibition at 1 µg/disc / zone of inhibition at 100 µg/disc: Bacillus cereus, read-out: Diameter of Zone Inhibition, B. cereus; for zone of inhibition at 1 µg/disc: ATCC10702, 1 µg/well; for zone of inhibition at 100 µg/disc: ATCC10702, 24 h, 100 µg/well, 24 h, incl. 7 mm well; for Diameter of Zone Inhibition, B. cereus: 1 µg/well
Protocol: (§1) Elyakov Pacific Institute of Bioorganic Chemistry, Far East Branch, Russian Academy of Sciences. Test substances were dissolved in DMSO at concentrations of 1.0, 0.1, and 0.01 mg/mL. All strains were grown on trypticase-soy agar TSA (BBL) at 37 °C. […] After incubation of the dishes at 37 °C for 24 h (for bacteria) and 48 h (for the fungus) at 28 °C, the diameters of the growth inhibition zones of pathogenic microorganisms (mm) were measured, including the diameter of the wells. Commercial antibacterial drugs (vancomicin and gentamicin) and antifungal (clotrimazol) drugs were used as positive controls.

[2] = test system: P. aeruginosa ATCC 27853; assay: Agar diffusion method, P. aeruginosa; type: cell-based, Pseudomonas aeruginosa; conditions: Pseudomonas aeruginosa, ATCC27853, 100 µg/well; read-out: Diameter of Zone Inhibition, P. aeruginosa
Protocol: as §1

[3] = test system: C. albicans KMM 453; assay: Agar diffusion method, C. albicans; type: cell-based; conditions: Candida albicans, KMM453, 48 h, 100 µg/well, 48 h at 28 °C; read-out: Diameter of Zone Inhibition, C. albicans
Protocol: as §1

[4] = test system: mouse ascites Ehrlich carcinoma; assay: Cytotoxicity, nonspecific esterase (FDA) assay, ascites Ehrlich carcinoma cells; conditions: for EC50: Mus musculus, Ehrlich, 24 h, read-out: Cytotoxicity (EC50), Ascites Ehrlich Carcinoma; for Selectivity Index (SI), Ascitic Ehrlich Carcinoma: SI = EC50 (Jb6 Cl 41-5a normal cells)/EC50 (tumor cells)
[5] = test system: S. aureus ATCC 21027; assay: Agar diffusion method, S. aureus; type: cell-based, Staphylococcus aureus; parameters: key to Diameter of Zone Inhibition, S. aureus: Zones within 20–40 mm mean strong antibiotic activity; zones up to 20 mm—moderate; ≤10 mm—weak; +—insignificant; conditions: for zone of inhibition at 1 µg/disc / zone of inhibition at 100 µg/disc: Staphylococcus aureus, read-out: Diameter of Zone Inhibition, S. aureus; for zone of inhibition at 1 µg/disc: ATCC21027, 1 µg/well; for zone of inhibition at 100 µg/disc: ATCC21027, 24 h, 100 µg/well, 24 h, incl. 7 mm well
Protocol: as §1

[6] = test system: S. aureus ATCC 21027; assay: Minimum inhibitory concentration, broth microdilution; type: cell-based, Staphylococcus aureus; conditions: for MIC: Staphylococcus aureus, ATCC21027, broth microdilution, 24 h, read-out: Minimum inhibitory concentration (MIC) against S. aureus; for Selectivity index (SI) against S. aureus: SI = EC50 (normal Jb6 Cl 41-5a cells)/MIC
Protocol: Stocks of substances were prepared in DMSO at a concentration of 10 mM. All studied compounds were tested in concentrations from 1.5 μM to 100 μM using twofold dilution. All tested compounds were add to the wells of the plates in a volume of 20 μL diluted in PBS (DMSO concentration < 1%). The bacterial culture of S. aureus ATCC 21027 (Collection of Marine Microorganisms PIBOC FEB RAS) was cultured in a Petri dish at 37 °C for 24 h on solid medium with the following composition; pepton—5.0 g/L, K2HPO4—0.2 g/L, glucose—1.0 g/L, MgSO4—0.05 g/L, yeast extract—1 g/L, agar—16.0 g/L, and distilled water—1.0 L. The pH of the medium was adjusted to 7.2–7.4 with NaOH solution.
The antimicrobial activity of the compounds was determined by the minimum inhibitory concentration (MIC) according to the method adopted by the Clinical and Laboratory Standards Institute (CLSI). Methods for dilution antimicrobial susceptibility tests for bacteria that grow aerobically followed the approved standard—tenth edition. CLSI document M07-A10, PA: Clinical and Laboratory Standards Institute; 2015, with a slight modification of the medium. The assays were performed in 96-well microplates in appropriate broth (pepton—5.0 g/L, K2HPO4—0.2 g/L, glucose—1.0 g/L, MgSO4—0.05 g/L, yeast extract—1 g/L, casein hydrolyzate—2.5 g/L, distilled water—1L). […] The MIC value is defined as the lowest concentration of compounds resulting in the complete inhibition of bacterial growth by measuring the absorbance at 600 nm with a microplate reader (BioTek, Winooski, Vt, USA). All experiments were performed twice in triplicate. Gentamicin was used as a positive control in concentration 1 mg/mL; 1% DMSO solution in PBS as a negative. The selectivity index for S. aureus has been defined as the ratio of EC50 for normal cells and the MIC value for the bacterial culture (SI = EC50/MIC).

[7] = test system: E. coli K-12; assay: Agar diffusion method, E. coli; type: cell-based, Escherichia coli; conditions: 100 µg/well; for zone of inhibition at 100 µg/disc: Escherichia coli, K12, read-out: Diameter of Zone Inhibition, E. coli
Protocol: as §1

[8] = test system: mouse neuroblastoma (Neuro 2a); assay: Cytotoxicity, MTT assay, Neuro 2a cells; conditions: for EC50: N2a, 24 h, read-out: Cytotoxicity (EC50), Neuro 2a; for Selectivity Index (SI), Neuro-2a: SI = EC50 (Jb6 Cl 41-5a normal cells)/EC50 (tumor cells)
[9] = Cytotoxicity, MTT assay, Jb6 Cl 41-5a normal epithelial cells; conditions: mouse, Jb6 Cl 41-5a normal epithelial cells
[10] = test system: human cervical cancer (HeLa); assay: Cytotoxicity, MTT assay, HeLa cells; conditions: for EC50: Homo sapiens, HeLa, 24 h, read-out: Cytotoxicity (EC50), HeLa; for Selectivity Index (SI), HeLa: SI = EC50 (Jb6 Cl 41-5a normal cells)/EC50 (tumor cells)
[11] = test system: Gram-positive bacteria (S. aureus, B. cereus); assay: Agar diffusion method, Gram-positive strains; type: cell-based, Staphylococcus aureus, Bacillus cereus; conditions: for Antimicrobial activity / inhibition zone diameter, Gram-positive bacteria: 10 µg/well; for Antimicrobial activity, Gram-positive strains: dilution to 1 µg/well
Protocol: as §1

Structure (SMILES) | zone of inhibition at 1 µg/disc [1] [mm] | zone of inhibition at 100 µg/disc [1] [mm] | melting point [°C] | zone of inhibition at 100 µg/disc [2] [mm] | zone of inhibition at 100 µg/disc [3] [mm] | EC50 [4] [nM] | Selectivity Index (SI), Ascitic Ehrlich Carcinoma [4] | zone of inhibition at 1 µg/disc [5] [mm] | zone of inhibition at 100 µg/disc [5] [mm] | MIC [6] [µM] | zone of inhibition at 100 µg/disc [7] [mm] | EC50 [8] [nM] | Selectivity Index (SI), Neuro-2a [8] | EC50 at 24 h [9] [nM] | EC50 [10] [nM] | Selectivity Index (SI), HeLa [10] | Diameter of Zone Inhibition, B. cereus [1] | Selectivity index (SI) against S. aureus [6] | Antimicrobial activity / inhibition zone diameter, Gram-positive bacteria [11] | Antimicrobial activity, Gram-positive strains [11] | further results
O=C1C2=C(O[C@@H]3[C@@H](O)[C@H](O)[C@@H](CO)O[C@H]3S2)C(=O)c2c(O)cccc21 [Compound 20a, (2R,3S,4S,4aR,12aS)-3,4,7-Trihydroxy-2-(hydroxymethyl)-3,4,4a,12a-tetrahydro-2H-naphtho[2,3-b]pyrano-[2,3-e][2,5]oxathiine-6,11-dione] | 0 | 22 ± 1 | 274 to 276 | 0 | 0 | 2700 | 0.3 | 0 | 30 ± 2 | 25 (≈ 9.16 µg/mL) | 0 | 700 | 1 | 700 | 6300 | 0.1 |  |  |  |  | 
O=C1C2=C(O[C@@H]3[C@@H](O)[C@@H](O)[C@@H](CO)O[C@H]3S2)C(=O)c2c(O)cccc21 [Compound 20b, (2R,3R,4S,4aR,12aS)-3,4,7-Trihydroxy-2-hydroxymethyl-3,4,4a,12a-tetrahydro-2H-naphtho[2,3-b]pyrano[2,3-e][2,5]oxathiine-6,11-dione] | 0 | 20 ± 1 | 293 to 295 | 0 | 0 | 1100 | 0.5 | 0 | 30 ± 2 | 25 (≈ 9.16 µg/mL) | 0 | 1200 | 0.4 | 500 | 4700 | 0.1 |  |  |  |  | 
O=C1C2=C(O[C@@H]3[C@@H](O)[C@H](O)CO[C@H]3S2)C(=O)c2c(O)cccc21 [Compound 20c, (3R,4S,4aR,12aS)-3,4,7-Trihydroxy-3,4,4a,12a-tetrahydro-2H-naphtho[2,3-b]pyrano[2,3-e][2,5]oxathiine-6,11-dione] |  | 25 ± 1 |  | 0 | 8 ± 1 | 700 | 0.4 |  | 30 ± 2 | 12.5 (≈ 4.2 µg/mL) | 0 | 2200 | 0.1 | 300 | 2300 | 0.1 | + | 0.02 | comparable with antibiotics vancomicin and gentamicin | residual effect | Diameter of Zone Inhibition, S. aureus ([5]; 1 µg/well): +
O=C1C2=C(O[C@@H]3[C@@H](O)[C@@H](O)CO[C@H]3S2)C(=O)c2c(O)cccc21 [Compound 20d, (3S,4S,4aR,12aS)-3,4,7-Trihydroxy-3,4,4a,12a-tetrahydro-2H-naphtho[2,3-b]pyrano[2,3-e][2,5]oxathiine-6,11-dione] |  | 30 ± 3 |  | 0 | 0 | 1200 | 0.6 | 0 | 40 ± 2 | 6.25 (≈ 2.1 µg/mL) | 0 | 1400 | 0.5 | 700 | 400 | 1.75 | + | 0.1 | comparable with antibiotics vancomicin and gentamicin | residual effect | 
COc1c(Cl)c(Cl)c(OC)c2c1C(=O)C1=C(S[C@@H]3OC[C@@H](O)[C@H](O)[C@H]3O1)C2=O [Compound 18c, (3R,4S,4aR,12aS)-8,9-Dichloro-3,4-dihydroxy-7,10-dimethoxy-3,4,4a,12a-tetrahydro-2H-naphtho[2,3-b]pyrano[2,3-e][2,5]oxathiine-6,11-dione] |  | < 20 | 277 to 279 | 0 | 0 | 4500 | 0.8 |  | < 20 |  | 0 | 4100 | 0.9 | 3800 | 10100 | 0.4 |  |  |  |  | Diameter of Zone Inhibition, E. coli [7]: not active
